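A five-concentration, 48-hour dose response in 96-well plates underlies each endpoint, interpolated linearly between surrounding concentrations. GI50: concentration for 50% inhibition of growth. TGI: concentration producing complete growth inhibition.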
Columns and labels:
Assay in all cases: NCI tumour cell line growth inhibition, 48 h
[1] = system: CCRF-CEM leukemia
[2] = system: OVCAR-3 ovarian
[3] = system: OVCAR-5 ovarian
[4] = system: SK-MEL-28 melanoma
[5] = system: SK-OV-3 ovarian
[6] = system: NCI/ADR-RES ovarian
[7] = system: A549 NSCLC
[8] = system: EKVX NSCLC
[9] = system: HCT-15 colon
[10] = system: SR leukemia
[11] = system: M14 melanoma
[12] = system: A498 renal
[13] = system: SN12C renal
[14] = system: PC-3 prostate
[15] = system: SF-295 CNS
[16] = system: HOP-92 NSCLC
[17] = system: ACHN renal
[18] = system: IGROV1 ovarian
[19] = system: RPMI-8226 leukemia
[20] = system: T-47D breast
[21] = system: SNB-19 CNS
[22] = system: SF-268 CNS
[23] = system: UO-31 renal
[24] = system: SF-539 CNS
[25] = system: NCI-H226 lung
[26] = system: MOLT-4 leukemia
[27] = system: HT29 colon
[28] = system: COLO 205 colon

For `C=C1C(=O)O[C@H]2[C@H]1CC/C(COC(=O)CCCCCCC(=O)OC/C1=C/CC[C@@]3(C)O[C@H]3[C@H]3OC(=O)C(=C)[C@@H]3CC1)=C\CC[C@@]1(C)O[C@@H]21`, the GI50 [1] was 1.11 µM, the TGI [1] was 5.89 µM and the GI50 [2] was 2.55 µM. The TGI [2] was 10 µM, the GI50 [3] was 2.54 µM and the TGI [3] was 7.5 µM. The GI50 [4] was 2.95 µM, the TGI [4] was 10.2 µM and the GI50 [5] was 35.9 µM. For the same compound, the TGI [5] was > 100 µM, the GI50 [6] was 4.26 µM and the TGI [6] was 29.6 µM. It also gave a GI50 [7] of 16.9 µM, a TGI [7] of 45 µM and a GI50 [8] of 3.66 µM. The TGI [8] was 16.1 µM, the GI50 [9] was 2.63 µM and the TGI [9] was 10.1 µM. For the same compound, the GI50 [10] was 1.51 µM, the TGI [10] was 9.88 µM and the GI50 [11] was 2.48 µM. For the same compound, the TGI [11] was 8.55 µM, the GI50 [12] was 15.3 µM and the TGI [12] was 30.5 µM. The GI50 [13] was 2.9 µM, the TGI [13] was 11.2 µM and the GI50 [14] was 2.74 µM. The TGI [14] was 7.98 µM, the GI50 [15] was 10.8 µM and the TGI [15] was 24.7 µM. It also gave a GI50 [16] of 2.24 µM, a TGI [16] of 8.14 µM and a GI50 [17] of 2.56 µM. The TGI [17] was 8.98 µM, the GI50 [18] was 2.91 µM and the TGI [18] was 10.5 µM. For the same compound, the GI50 [19] was 2.27 µM, the TGI [19] was 6.42 µM and the GI50 [20] was 3.48 µM. The TGI [20] was 10.8 µM, the GI50 [21] was 7.17 µM and the TGI [21] was 24.1 µM. For the same compound, the GI50 [22] was 3.51 µM, the TGI [22] was 14.3 µM and the GI50 [23] was 1.58 µM. For the same compound, the TGI [23] was 4.37 µM, the GI50 [24] was 2.52 µM and the TGI [24] was 7 µM. The GI50 [25] was 2.39 µM, the TGI [25] was 6.65 µM and the GI50 [26] was 2.4 µM. The TGI [26] was 9.93 µM, the GI50 [27] was 2.41 µM and the TGI [27] was 4.9 µM. The GI50 [28] was 2 µM.

From PubChem BioAssay (NCI)
